Results from patent US20200399250A1, “Pyrimidine Derivatives as Tropomyosin Receptor Kinase A (TRKA) Inhibitors” (BIOMED X GMBH, priority 2017, published 2020).
Entries after “also recorded” stand apart in the source; their conditions may differ.

What was measured:
Format in all cases: binding
TrkA [1] = molecular target: T1, TrkA (Homo sapiens, UniProt P04629); test: KINOMEscan primary screen against TrkA; details: % of control; for % Ctrl. TrkA @10 nM: 10 nM compound; for % Ctrl. TrkA @100 nM: 100 nM compound
Method: (§1) Compounds were initially tested in a primary screen against TrkA (at 10 and 100 nM) and AurA (at 100 nM and 1 μM) using the KINOMEscan technology from DiscoverX Corporation, Fremont, Calif., USA (https://www.discoverx.com/services/drug-discovery-development-services/kinase-profiling/kinomescan).
Results were reported as % of control (% Ctrl.=(test compound signal−positive control signal)/(DMSO signal−positive control signal). KINOMEscan is an active site-directed competition binding assay that quantitatively measures the ability of a compound to compete with an immobilized, active-site directed ligand.

AurA [2] = molecular target: T2, AurA (Homo sapiens, UniProt O14965); test: KINOMEscan primary screen against AurA; details: % of control; for % Ctrl. AurA @100 nM: 100 nM compound; for % Ctrl. AurA @1 μM: 1 μM compound
T2 sequence (O14965 1-403): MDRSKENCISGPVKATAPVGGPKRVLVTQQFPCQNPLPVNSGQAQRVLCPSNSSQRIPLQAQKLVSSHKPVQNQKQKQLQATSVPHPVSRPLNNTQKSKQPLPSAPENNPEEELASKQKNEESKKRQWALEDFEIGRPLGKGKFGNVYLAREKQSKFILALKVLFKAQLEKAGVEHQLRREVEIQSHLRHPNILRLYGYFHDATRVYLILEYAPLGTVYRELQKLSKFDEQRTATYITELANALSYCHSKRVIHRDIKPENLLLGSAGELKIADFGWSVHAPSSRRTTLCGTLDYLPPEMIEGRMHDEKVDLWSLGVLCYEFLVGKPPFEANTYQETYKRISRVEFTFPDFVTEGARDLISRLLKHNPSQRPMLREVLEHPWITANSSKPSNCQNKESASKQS
Method: as §1

TrkA [3] = molecular target: T1, TrkA; test: KdELECT Kd measurement (KINOMEscan), TrkA; details: for Kd: duplicate 11-point dose-response curves
Method: (§2) Kd measurements were done via the KdELECT product service from DiscoverX Corporation (Freemont, Calif., USA) which also employs the KINOMEscan technology. Here, inhibitor binding constants (Kd values) are calculated from duplicate 11-point dose-response curves.

TrkA [4] = test: KdELECT Kd measurement (KINOMEscan), TrkA; details: for ΔpKd: TrkA pKd versus AurA pKd
Method: as §2

AurA [5] = molecular target: T2, AurA; test: KdELECT Kd measurement (KINOMEscan), AurA; details: for Kd: duplicate 11-point dose-response curves
Method: as §2

panel of 97 kinases = test: Selectivity profiling, scanEDGE kinase panel (KINOMEscan); details: 100 nM, cut-off <35% ctrl; for # Hits: N = 92 non-mutant kinases; for Selectivity Score: inhibited kinases/tested kinases
Method: Selectivity profiling was done over a panel of 97 kinases at 100 nM concentration (scanEDGE assay panel from Discover X, which also uses the KINOMEscan technology, whereat KIT(D816V) and KIT (V559D, T6701) were replaced by TrkB and TrkC). […] The employed profiling panel consisted of the following kinases: ABL1(T3151)-phosphorylated, ABL1-nonphosphorylated, ABL1-phosphorylated, ACVR1B, ADCK3, AKT1, AKT2, ALK, AURKA, AURKB, AXL, BMPR2, BRAF, BRAF (V600E), BTK, CDK11, CDK2, CDK3, CDK7, CDK9, CHEK1, CSF1R, CSNK1D, CSNK1G2, DCAMKL1, DYRK1B, EGFR, EGFR (L858R), EPHA2, ERBB2, ERBB4, ERK1, FAK, FGFR2, FGFR3, FLT3, GSK3B, IGF1R, IKK-alpha, IKK-beta, INSR, JAK2 (JH1domain-catalytic), JAK3 (JH1domain-catalytic), JNK1, JNK2, JNK3, KIT, LKB1, MAP3K4, MAPKAPK2, MARK3, MEK1, MEK2, MET, MKNK1, MKNK2, MLK1, p38-alpha, p38-beta, PAK1, PAK2, PAK4, PCTK1, PDGFRA, PDGFRB, PDPK1, PIK3C2B, PIK3CA, PIK3CG, PIM1, PIM2, PIM3, PKAC-alpha, PLK1, PLK3, PLK4, PRKCE, RAF1, RET, RIOK2, ROCK2, RSK2 (Kin. Dom. 1-N-terminal), SNARK, SRC, SRPK3, TGFBR1, TIE2, TRKA, TRKB, TRKC, TSSK1B, TYK2 (JH1domain-catalytic), ULK2, VEGFR2, YANK3, ZAP70

T1 sequence (P04629 33-796): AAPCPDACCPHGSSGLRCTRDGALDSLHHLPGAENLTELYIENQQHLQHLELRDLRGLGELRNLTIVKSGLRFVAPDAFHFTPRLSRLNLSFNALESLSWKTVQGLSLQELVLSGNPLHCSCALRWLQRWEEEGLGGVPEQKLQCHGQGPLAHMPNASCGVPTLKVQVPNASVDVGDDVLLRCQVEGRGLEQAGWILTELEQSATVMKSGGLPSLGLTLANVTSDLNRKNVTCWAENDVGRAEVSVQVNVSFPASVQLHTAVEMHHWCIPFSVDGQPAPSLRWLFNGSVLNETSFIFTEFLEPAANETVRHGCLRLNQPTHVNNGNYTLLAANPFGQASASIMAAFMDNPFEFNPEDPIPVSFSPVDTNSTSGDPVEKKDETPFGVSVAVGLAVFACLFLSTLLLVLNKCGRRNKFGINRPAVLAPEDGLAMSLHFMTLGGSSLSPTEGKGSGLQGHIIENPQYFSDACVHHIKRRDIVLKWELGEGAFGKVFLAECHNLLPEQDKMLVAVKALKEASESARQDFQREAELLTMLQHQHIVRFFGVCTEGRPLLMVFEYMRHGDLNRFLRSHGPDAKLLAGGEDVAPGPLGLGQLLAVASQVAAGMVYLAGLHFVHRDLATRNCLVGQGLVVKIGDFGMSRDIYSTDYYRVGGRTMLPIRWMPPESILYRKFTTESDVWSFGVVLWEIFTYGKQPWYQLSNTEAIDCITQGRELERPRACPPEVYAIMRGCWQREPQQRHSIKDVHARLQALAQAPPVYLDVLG

% Ctrl. TrkA @10 nM (TrkA [1]) | % Ctrl. TrkA @100 nM (TrkA [1]) | % Ctrl. AurA @100 nM (AurA [2]) | % Ctrl. AurA @1 μM (AurA [2]) | TrkA [pKd] (TrkA [3]) | Kd (TrkA [3]) | ΔpKd (TrkA [4]) | ΔΔpKd (selectivity towards AurA compared to tozasertib) (TrkA [4]; compared to tozasertib) | AurA [pKd] (AurA [5]) | Kd (AurA [5]) | # Hits (panel of 97 kinases) | Selectivity Score (panel of 97 kinases) | SMILES | List of inhibited kinases (panel of 97 kinases)
58 % Ctrl. | 10 % Ctrl. | 15 % Ctrl. | 0.95 % Ctrl. | 7.5 | 30 nM | 0.1 | 1 | 7.4 | 41 nM | – | – | Cc1cc(Nc2cc(N3CCN(C)CC3)nc(Sc3ccccc3)n2)n[nH]1 [Reference 2, N-(5-methyl-1H-pyrazol-3-yl)-6-(4-methylpiperazin-1-yl)-2-(phenylsulfanyl)-pyrimidin-4-amine, reference compound] | –
93 % Ctrl. | 29 % Ctrl. | 87 % Ctrl. | 76 % Ctrl. | – | – | – | – | – | – | – | – | CN1CCN(c2cc(Nc3cc4ccccn4n3)nc(Sc3ccccc3)n2)CC1 [a3, 6-(4-methylpiperazin-1-yl)-2-(phenylsulfanyl)-N-(pyrazolo[1,5-a]pyridin-2-yl)pyrimidin-4-amine] | –
15 % Ctrl. | 0.95 % Ctrl. | 49 % Ctrl. | 4.5 % Ctrl. | 8.8 | 1.5 nM | 1.8 | – | 7.0 | 93 nM | 19 | 0.207 | CN1CCN(c2cc(Nc3cc(C4CCCC4)[nH]n3)nc(Sc3ccccc3)n2)CC1 [a4, N-(5-cyclopentyl-1H-pyrazol-3-yl)-6-(4-methylpiperazin-1-yl)-2-(phenylsulfanyl)pyrimidin-4-amine] | TrkA, TrkB, TrkC, ABL1, AurA,; also recorded: AXL, FGFR2, FGFR3, FLT3, FMS,; also recorded: INSR, JAK2, JAK3, KIT, MAP2K2,; also recorded: MET, PDGFRb, RET, SRC
69 % Ctrl. | 18 % Ctrl. | 100 % Ctrl. | 79 % Ctrl. | – | – | – | – | – | – | – | – | CN1CCN(c2cc(Nc3cc(C(C)(C)C)[nH]n3)nc(Sc3ccccc3)n2)CC1 [a8, N-(5-tert-butyl-1H-pyrazol-3-yl)-6-(4-methylpiperazin-1-yl)-2-(phenylsulfanyl) pyrimidin-4-amine] | –
80 % Ctrl. | 11 % Ctrl. | 7.3 % Ctrl. | 0.5 % Ctrl. | – | – | – | – | – | – | – | – | Cc1ccc(C)c(Sc2nc(Nc3cc(C)[nH]n3)cc(N3CCN(C)CC3)n2)c1 [b1, 2-[(2,5-dimethylphenyl)sulfanyl]-N-(5-methyl-1H-pyrazol-3-yl)-6-(4-methylpiperazin-1-yl)pyrimidin-4-amine] | –
93 % Ctrl. | 31 % Ctrl. | 54 % Ctrl. | 9.4 % Ctrl. | – | – | – | – | – | – | – | – | Cc1ccc(C)c(CSc2nc(Nc3cc(C)[nH]n3)cc(N3CCN(C)CC3)n2)c1 [b2, 2-{[(2,5-dimethylphenyl)methyl]sulfanyl}-N-(5-methyl-1H-pyrazol-3-yl)-6-(4-methylpiperazin-1-yl)pyrimidin-4-amine] | –
53 % Ctrl. | 11 % Ctrl. | 46 % Ctrl. | 4.5 % Ctrl. | – | – | – | – | – | – | – | – | Cc1cc(Nc2cc(N3CCN(C)CC3)nc(SCc3ccc(C)c(C)c3)n2)n[nH]1 [b3, 2-{[(3,4-dimethylphenyl)methyl]sulfanyl}-N-(5-methyl-1H-pyrazol-3-yl)-6-(4-methylpiperazin-1-yl)pyrimidin-4-amine] | –
50 % Ctrl. | 6.7 % Ctrl. | 2.6 % Ctrl. | 0.1 % Ctrl. | – | – | – | – | – | – | – | – | Cc1cccc(Sc2nc(Nc3cc(C)[nH]n3)cc(N3CCN(C)CC3)n2)c1 [b4, N-(5-methyl-1H-pyrazol-3-yl)-2-[(3-methylphenyl)sulfanyl]-6-(4-methylpiperazin-1-yl)pyrimidin-4-amine] | –
90 % Ctrl. | 32 % Ctrl. | 36 % Ctrl. | 2.4 % Ctrl. | – | – | – | – | – | – | – | – | Cc1cc(Nc2cc(N3CCN(C)CC3)nc(Sc3cccc(C(F)(F)F)c3)n2)n[nH]1 [b5, N-(5-methyl-1H-pyrazol-3-yl)-6-(4-methylpiperazin-1-yl)-2-{[3-(trifluoromethyl)phenyl]sulfanyl}pyrimidin-4-amine] | –
74 % Ctrl. | 35 % Ctrl. | 63 % Ctrl. | 7.4 % Ctrl. | – | – | – | – | – | – | – | – | Cc1cc(Nc2cc(N3CCN(C)CC3)nc(SCc3cccc4ccccc34)n2)n[nH]1 [b6, N-(5-methyl-1H-pyrazol-3-yl)-6-(4-methylpiperazin-1-yl)-2-[(naphthalen-1-ylmethyl)sulfanyl]pyrimidin-4-amine] | –
35 % Ctrl. | 5.3 % Ctrl. | 30 % Ctrl. | 1.3 % Ctrl. | 8.4 | 3.8 nM | 1.1 | – | 7.3 | 53 nM | 17 | 0.185 | Cc1ccc(CSc2nc(Nc3cc(C)[nH]n3)cc(N3CCN(C)CC3)n2)cc1 [b8, N-(5-methyl-1H-pyrazol-3-yl)-2-{[(4-methylphenyl)methyl]sulfanyl}-6-(4-methylpiperazin-1-yl)pyrimidin-4-amine] | TrkA, TrkB, TrkC, ABL1, AurA, and AXL, BTK, FGFR3, FLT3, JAK2, and JAK3, KDR, KIT, PLK4, RET, SRC, and TYK2
77 % Ctrl. | 24 % Ctrl. | 51 % Ctrl. | 3.8 % Ctrl. | – | – | – | – | – | – | – | – | Cc1ccc(Sc2nc(Nc3cc(C)[nH]n3)cc(N3CCN(C)CC3)n2)c(C)c1 [b9, 2-[(2,4-dimethylphenyl)sulfanyl]-N-(5-methyl-1H-pyrazol-3-yl)-6-(4-methylpiperazin-1-yl)pyrimidin-4-amine] | –

SMILES | % Ctrl. TrkA @10 nM (TrkA [1]) | % Ctrl. TrkA @100 nM (TrkA [1]) | % Ctrl. AurA @100 nM (AurA [2]) | % Ctrl. AurA @1 μM (AurA [2]) | TrkA [pKd] (TrkA [3]) | Kd (TrkA [3]) | ΔpKd (TrkA [4]) | ΔΔpKd (selectivity towards AurA compared to tozasertib) (TrkA [4]; compared to tozasertib) | AurA [pKd] (AurA [5]) | Kd (AurA [5]) | # Hits (panel of 97 kinases) | Selectivity Score (panel of 97 kinases) | List of inhibited kinases (panel of 97 kinases)
Cc1cc(Nc2cc(N3CCN(C)CC3)nc(Sc3ccc(NC(=O)C4CC4)cc3)n2)n[nH]1 [Tozasertib, N-[4-({4-[(5-methyl-1H-pyrazol-3-yl)amino]-6-(4-methylpiperazin-1-yl)pyrimidin-2-yl}sulfanyl)phenyl]cyclopropanecarboxamide, reference compound] | 31 % Ctrl. | 5.2 % Ctrl. | – | – | – | – | – | – | – | – | 10 | – | TrkA, ABL1, AurA, AurB, AXL,; also recorded: CK1d, FLT3, JAK2, PLK4, RET
